Molecules are shown by their SMILES. Counter-ions that a name gives are not always drawn. Positions of bridges follow the written chain, without caps; N, C: chain ends. Non-standard residues stand in square brackets, D forms with d. Residues, ends and D or L forms follow the SMILES beside them. *: point of attachment. X56 = CCCCCCCCCCCC(=O)NCCOCCOCC(=O)NCCOCCOCC(=O)NCC[N+](C)(C)CC(=O)*; Me3N+(CH2)2O(CH2)2O(CH2)2CO = C[N+](C)(C)CCOCCOCCC(=O)*; CH2CH2OCH2CH2OCH2CH2NMe3+ = C[N+](C)(C)CCOCCOCC*; Trp(7-Me) = Cc1cccc2c(C[C@H](N)C(=O)O)c[nH]c12; 2Nal = N[C@@H](Cc1ccc2ccccc2c1)C(=O)O; AEF = NCCOc1ccc(C[C@H](N)C(=O)O)cc1; dNMeY = CN[C@H](Cc1ccc(O)cc1)C(=O)O; X22 = CN1CC[N+](C)(CCOCCOCC*)CC1; X32 = C(CCC*)CC[N+]12CCN(CC1)CC2; 3Pal = N[C@@H](Cc1cccnc1)C(=O)O; Lys(Me) = CNCCCC[C@H](N)C(=O)O; NMeK = CN[C@@H](CCCCN)C(=O)O; Pen = CC(C)(S)[C@H](N)C(=O)O; αMeK = C[C@](N)(CCCCN)C(=O)O; dOrn = NCCC[C@@H](N)C(=O)O; Thp = NC1(C(=O)O)CCOCC1; X17 = C[N+]1(CC*)CCOCC1; X3 = C[N+](C)(C)CCCCC*; Me2NCH2CH2 = CN(C)CC*; Tfa = O=C(C(F)(F)F)*; Sar = CNCC(=O)O

The series is described as follows: Exposed Polar Surface Area (EPSA). The format is physicochemical. The note with it: SFC on Chirex 3014 column; sample 1 mM DMSO stock; read-out: EPSA. The procedure, abridged:
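SFC retention on a Chirex 3014 (S-valine/(R)-1-(α-naphthyl)ethylamine) column at 35 °C, 4 mL/min, 14 MPa outlet, 5–60% methanol/20 mM ammonium formate gradient in CO2. Retention times converted to EPSA (Å²) via linear calibration with 8 standards; samples from 1 mM DMSO stock, run in duplicate.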
As to `CC(=O)N(C)CCCC[C@@H]1NC(=O)[C@H](Cc2c[nH]c3c(C)cccc23)NC(=O)[C@H]([C@@H](C)O)NC(=O)[C@H](CC(=O)N(C)C)NC(=O)[C@@H](NC(=O)C(F)(F)F)C(C)(C)SSC(C)(C)[C@@H](C(=O)N[C@@H](Cc2ccc(OCCN(C)C)cc2)C(=O)N[C@@H](Cc2ccc3ccccc3c2)C(=O)NC2(C(=O)N[C@@H](CCCCN(C)C(C)=O)C(=O)N[C@@H](CC(N)=O)C(=O)N[C@@H](Cc3cccnc3)C(=O)N(C)CC(=O)N(C)C)CCOCC2)NC1=O` [compound 66, CF3CO-Pen(3)-N(N(Me)2)-T-7MeW-K(NMeAc)-Pen(3)-AEF(N(Me)2)-2Nal-THP-K(NMeAc)-N-3Pya-Sar-CON(Me)2] (Tfa-[Pen]D(NMe2)T[Trp(7-Me)][Lys(Me)](Ac)[Pen]Y(Me2NCH2CH2)[2Nal][Thp][Lys(Me)](Ac)N[3Pal][Sar]-NMe2; disulfide 1-6 (inferred)), the EPSA amounted to 138 A^2.

On to `CC(=O)N(C)CCCC[C@@H]1NC(=O)[C@H](Cc2c[nH]c3c(C)cccc23)NC(=O)[C@H]([C@@H](C)O)NC(=O)[C@H](CC(=O)N(C)C)NC(=O)[C@@H](NC(=O)CCOCCOCC[N+](C)(C)C)C(C)(C)SSC(C)(C)[C@@H](C(=O)N[C@@H](Cc2ccc(OCCCCCC[N+]34CCN(CC3)CC4)cc2)C(=O)N[C@@H](Cc2ccc3ccccc3c2)C(=O)NC2(C(=O)N[C@@H](CCCCN(C)C(C)=O)C(=O)N[C@@H](CC(N)=O)C(=O)N[C@@H](Cc3cccnc3)C(=O)N(C)CC(=O)N(C)C)CCOCC2)NC1=O` [compound 292, cPEG3aCO-Pen(3)-N(N(Me)2)-T-7MeW-K(NMeAc)-Pen(3)-Diazabiclyclooctane6F-2Nal-THP-K(NMeAc)-N-3Pya-Sar-CON(Me)2] ({Me3N+(CH2)2O(CH2)2O(CH2)2CO}-[Pen]D(NMe2)T[Trp(7-Me)][Lys(Me)](Ac)[Pen]Y(X32)[2Nal][Thp][Lys(Me)](Ac)N[3Pal][Sar]-NMe2; disulfide 1-6), for which the EPSA turned out to be 152 A^2.

Consider `CC(=O)N[C@@H]1C(=O)N[C@@H](CC(=O)N(C)C)C(=O)N[C@@H]([C@@H](C)O)C(=O)N[C@@H](Cc2c[nH]c3c(C)cccc23)C(=O)N[C@@H](CCCCN(C)C(C)=O)C(=O)N[C@H](C(=O)N[C@@H](Cc2ccc(OCCOCCOCC[N+](C)(C)C)cc2)C(=O)N[C@@H](Cc2ccc3ccccc3c2)C(=O)NC2(C(=O)N[C@@H](CCCCN(C)C(=O)CCOCCOCC[N+](C)(C)C)C(=O)N[C@@H](CC(N)=O)C(=O)N[C@@H](Cc3cccnc3)C(=O)N(C)CC(=O)N(C)C)CCOCC2)C(C)(C)SSC1(C)C` [compound 218, MeCO-Pen(3)-N(N(Me)2)-T-7MeW-K(NMeAc)-Pen(3)-APEG3F-2Nal-THP-K(NMePEG3a)-N-3Pya-Sar-CON(Me)2] (Ac-[Pen]D(NMe2)T[Trp(7-Me)][Lys(Me)](Ac)[Pen]Y(CH2CH2OCH2CH2OCH2CH2NMe3+)[2Nal][Thp][Lys(Me)](Me3N+(CH2)2O(CH2)2O(CH2)2CO)N[3Pal][Sar]-NMe2; disulfide 1-6), for which the EPSA was determined as 136 A^2.

For the compound `CC(=O)NCCCC[C@@H]1NC(=O)[C@H](Cc2c[nH]c3c(C)cccc23)NC(=O)[C@H]([C@@H](C)O)NC(=O)[C@H](CC(N)=O)NC(=O)[C@@H](NC(C)=O)C(C)(C)SSC(C)(C)[C@@H](C(=O)N[C@@H](Cc2ccc(OCCN)cc2)C(=O)N[C@@H](Cc2ccc3ccccc3c2)C(=O)NC2(C(=O)N[C@@H](CCCCNC(=O)CCOCCOCC[N+](C)(C)C)C(=O)N[C@@H](CC(N)=O)C(=O)N[C@@H](Cc3cccnc3)C(=O)N(C)CC(N)=O)CCOCC2)NC1=O` [compound 86] (Ac-[Pen]NT[Trp(7-Me)]K(Ac)[Pen][AEF][2Nal][Thp]K(Me3N+(CH2)2O(CH2)2O(CH2)2CO)N[3Pal][Sar]-NH2; disulfide 1-6), the EPSA stood at 150 A^2.

In the case of `CCCCCCCCCCCC(=O)NCCOCCOCC(=O)NCCOCCOCC(=O)NCC[N+](C)(C)CC(=O)NCCCC[C@@H](C(N)=O)N(C)C(=O)[C@H](Cc1cccnc1)NC(=O)[C@H](CC(N)=O)NC(=O)[C@H](CCCCN(C)C(C)=O)NC(=O)C1(NC(=O)[C@H](Cc2ccc3ccccc3c2)NC(=O)[C@H](Cc2ccc(OCCCCC[N+](C)(C)C)cc2)NC(=O)[C@H]2NC(=O)[C@H](CCCCNC(C)=O)NC(=O)[C@H](Cc3c[nH]c4c(C)cccc34)NC(=O)[C@H]([C@@H](C)O)NC(=O)[C@H](CC(=O)N(C)C)NC(=O)[C@@H](NC(=O)CCOCCOCC[N+](C)(C)C)C(C)(C)SSC2(C)C)CCOCC1` [compound 407, cPEG3aCO-Pen(3)-N(N(Me)2)-T-7MeW-K(Ac)-Pen(3)-TMAPF-2Nal-THP-K(NMeac)-N-3Pya-NMeK(SP6PEG2PEG2C12)-CONH2] ({Me3N+(CH2)2O(CH2)2O(CH2)2CO}-[Pen]D(NMe2)T[Trp(7-Me)]K(Ac)[Pen]Y(X3)[2Nal][Thp][Lys(Me)](Ac)N[3Pal][NMeK](X56)-NH2; disulfide 1-6), the EPSA came out at 151 A^2.

Take `CC(=O)NCCCC[C@@H]1NC(=O)[C@H](Cc2c[nH]c3c(C)cccc23)NC(=O)[C@H]([C@@H](C)O)NC(=O)[C@H](CC(N)=O)NC(=O)[C@@H](NC(C)=O)C(C)(C)SSC(C)(C)[C@@H](C(=O)N[C@@H](Cc2ccc(OCCN)cc2)C(=O)N[C@@H](Cc2ccc3ccccc3c2)C(=O)N[C@@](C)(CCCCN)C(=O)N[C@@H](CCCCNC(C)=O)C(=O)N[C@@H](CC(N)=O)C(=O)N[C@H](CCCN)C(=O)N(C)[C@H](Cc2ccc(O)cc2)C(N)=O)NC1=O` [compound 18, MeCO-Pen(3)-N-T-7MeW-K(Ac)-Pen(3)-AEF-2Nal-aMeK-K(Ac)-N-orn-NMeDTyr-CONH2] (Ac-[Pen]NT[Trp(7-Me)]K(Ac)[Pen][AEF][2Nal][αMeK]K(Ac)N[dOrn][dNMeY]-NH2; disulfide 1-6): the EPSA came to 219 A^2.

With `CC(=O)NCCCC[C@@H]1NC(=O)[C@H](Cc2c[nH]c3c(C)cccc23)NC(=O)[C@H]([C@@H](C)O)NC(=O)[C@H](CC(N)=O)NC(=O)[C@@H](NC(C)=O)C(C)(C)SSC(C)(C)[C@@H](C(=O)N[C@@H](Cc2ccc(OCC[N+]3(C)CCOCC3)cc2)C(=O)N[C@@H](Cc2ccc3ccccc3c2)C(=O)NC2(C(=O)N[C@@H](CCC(=O)O)C(=O)N[C@@H](CC(N)=O)C(=O)N[C@@H](Cc3cccnc3)C(=O)N(C)CC(N)=O)CCOCC2)NC1=O` [compound 431] (Ac-[Pen]NT[Trp(7-Me)]K(Ac)[Pen]Y(X17)[2Nal][Thp]EN[3Pal][Sar]-NH2; disulfide 1-6 (inferred)), the EPSA came out at 174 A^2.

In the case of `CC(=O)NCCCC[C@@H]1NC(=O)[C@H](Cc2c[nH]c3c(C)cccc23)NC(=O)[C@H]([C@@H](C)O)NC(=O)[C@H](CC(N)=O)NC(=O)[C@@H](NC(C)=O)C(C)(C)SSC(C)(C)[C@@H](C(=O)N[C@@H](Cc2ccc(OCCOCCOCC[N+]3(C)CCN(C)CC3)cc2)C(=O)N[C@@H](Cc2ccc3ccccc3c2)C(=O)NC2(C(=O)N[C@@H](CCC(=O)O)C(=O)N[C@@H](CC(N)=O)C(=O)N[C@@H](Cc3cccnc3)C(=O)N(C)CC(N)=O)CCOCC2)NC1=O` [compound 433] (Ac-[Pen]NT[Trp(7-Me)]K(Ac)[Pen]Y(X22)[2Nal][Thp]EN[3Pal][Sar]-NH2; disulfide 1-6 (inferred)), the EPSA worked out at 164 A^2.

The values are drawn from patent US20260022143A1, “Cyclic Peptide Inhibitors of IL-23” (JANSSEN PHARMACEUTICA NV, priority 2022, published 2026).
